According to ChEMBL document CHEMBL1132028, “Glycolipids from sponges. VII. Simplexides, novel immunosuppressive glycolipids from the Caribbean sponge Plakortis simplex” (1999):

Experiments:
[1] = tested on: T-cell; test: Inhibitory activity against murine immune-system T-cells stimulated with concanavalin-A at 100 ng/ml; format: functional, Mus musculus
[2] = tested on: T-cell; test: Inhibitory activity against murine immune-system T-cells stimulated with concanavalin-A at 10 ng/ml; format: functional, Mus musculus
[3] = tested on: Plakortis simplex; test: In vitro immunosuppressors activity against P. simplex; Potent; format: functional, organism-based

CC(C)CCCCCCCCCCCCCCC(CCCCCCCCCCCCCCC(C)C)O[C@@H]1O[C@@H](CO)[C@H](O[C@H]2O[C@@H](CO)[C@@H](O)[C@H](O)[C@@H]2O)[C@H](O)[C@@H]1O
Proliferation [1]: 79% | Proliferation [2]: 43%

CCCCCCCCCCCCCCCCCCC(CCCCCCCCCCCCCCC(C)C)O[C@@H]1O[C@@H](CO)[C@H](OC2O[C@@H](CO)[C@@H](O)[C@H](O)[C@@H]2O)[C@H](O)[C@@H]1O (stereo partly specified)
Proliferation [1]: 79% | Proliferation [2]: 43%

CCCCCCCCCCCCCCCCCC(CCCCCCCCCCCCCCC(C)C)O[C@@H]1O[C@@H](CO)[C@H](O[C@H]2O[C@@H](CO)[C@@H](O)[C@H](O)[C@@H]2O)[C@H](O)[C@@H]1O (stereo partly specified)
Proliferation [1]: 79% | Proliferation [2]: 43%

CCCCCCCCCCCCCCCCCC(CCCCCCCCCCCCCCCC)O[C@@H]1O[C@@H](CO)[C@H](O[C@H]2O[C@@H](CO)[C@@H](O)[C@H](O)[C@@H]2O)[C@H](O)[C@@H]1O (stereo partly specified)
Proliferation [1]: 79% | Proliferation [2]: 43%

CCCCCCCCCCCCCCCCC(CCCCCCCCCCCCCCC(C)C)O[C@@H]1O[C@@H](CO)[C@H](O[C@H]2O[C@@H](CO)[C@@H](O)[C@H](O)[C@@H]2O)[C@H](O)[C@@H]1O (stereo partly specified)
Proliferation [1]: 79% | Proliferation [2]: 43%

CCCCCCCCCCCCCCCCCC(CCCCCCCCCCCCCCCCC)O[C@@H]1O[C@@H](CO)[C@H](O[C@H]2O[C@@H](CO)[C@@H](O)[C@H](O)[C@@H]2O)[C@H](O)[C@@H]1O
Proliferation [1]: 79% | Proliferation [2]: 43%

CCCCCCCCCCCCCCCCCCC(CCCCCCCCCCCCCCC(C)CC)O[C@@H]1O[C@@H](CO)[C@H](O[C@H]2O[C@@H](CO)[C@@H](O)[C@H](O)[C@@H]2O)[C@H](O)[C@@H]1O (stereo partly specified)
Proliferation [1]: 79% | Proliferation [2]: 43%

CCCCCCCCCCCCCCCCCCC(CCCCCCCCCCCCCCCCC)O[C@@H]1O[C@@H](CO)[C@H](OC2O[C@@H](CO)[C@@H](O)[C@H](O)[C@@H]2O)[C@H](O)[C@@H]1O (stereo partly specified)
Proliferation [1]: 79% | Proliferation [2]: 43%

CCCCCCCCCCCCCCCCCCC(CCCCCCCCCCCCCCCC)O[C@@H]1O[C@@H](CO)[C@H](O[C@H]2O[C@@H](CO)[C@@H](O)[C@H](O)[C@@H]2O)[C@H](O)[C@@H]1O (stereo partly specified)
Proliferation [1]: 79% | Proliferation [2]: 43%

CCCCCCCCCCCC1CC1CCCCC/C=C/CC[C@@H](O)[C@H](CO[C@@H]1O[C@@H](CO)[C@H](O)[C@H](O)[C@@H]1OCC=C(C)C)NC(=O)[C@H](O)CC/C=C\CCCCC1CC1CCCCCCCCCC (stereo partly specified)
Activity [3]: Potent

CCCCCCCCCCCCCCCCCCC(CCCCCCCCCCCCCCCCCC)O[C@@H]1O[C@@H](CO)[C@H](O[C@H]2O[C@@H](CO)[C@@H](O)[C@H](O)[C@@H]2O)[C@H](O)[C@@H]1O
Proliferation [1]: 79% | Proliferation [2]: 43%

CCCCCCCCCCCCCCCCC(CCCCCCCCCCCCCCC(C)CC)O[C@@H]1O[C@@H](CO)[C@H](O[C@H]2O[C@@H](CO)[C@@H](O)[C@H](O)[C@@H]2O)[C@H](O)[C@@H]1O (stereo partly specified)
Proliferation [1]: 79% | Proliferation [2]: 43%

CCCCCCCCCCCCCCCCC(CCCCCCCCCCCCCCCC)O[C@@H]1O[C@@H](CO)[C@H](O[C@H]2O[C@@H](CO)[C@@H](O)[C@H](O)[C@@H]2O)[C@H](O)[C@@H]1O
Proliferation [1]: 79% | Proliferation [2]: 43%

CCC(C)CCCCCCCCCCCCCCC(CCCCCCCCCCCCCCC(C)C)O[C@@H]1O[C@@H](CO)[C@H](O[C@H]2O[C@@H](CO)[C@@H](O)[C@H](O)[C@@H]2O)[C@H](O)[C@@H]1O (stereo partly specified)
Proliferation [1]: 79% | Proliferation [2]: 43%

CCC(C)CCCCCCCCCCCCCCC(CCCCCCCCCCCCCCC(C)CC)O[C@@H]1O[C@@H](CO)[C@H](OC2O[C@@H](CO)[C@@H](O)[C@H](O)[C@@H]2O)[C@H](O)[C@@H]1O (stereo partly specified)
Proliferation [1]: 79% | Proliferation [2]: 43%

CCCCCCCCCCCCCCCCCC(CCCCCCCCCCCCCCC(C)CC)O[C@@H]1O[C@@H](CO)[C@H](O[C@H]2O[C@@H](CO)[C@@H](O)[C@H](O)[C@@H]2O)[C@H](O)[C@@H]1O (stereo partly specified)
Proliferation [1]: 79% | Proliferation [2]: 43%
